Reference: ChEMBL document CHEMBL4651402, “Screening of ~5500 FDA-approved drugs and clinical candidates for anti-SARS-CoV-2 activity” (2021)
Where a name gives a salt, the structure may show the parent alone.

Tested on: SARS-CoV-2
Test: microbe, parasite or virus in culture
Conditions: Severe acute respiratory syndrome coronavirus 2, Vero C1008, 48 h

CNn1cc(C(=O)O)c(=O)c2cc(F)c(N3CCN(C)CC3)cc21 [AMIFLOXACIN]
IC50: > 20 µM | IC50 (read-out: pIC50 (converted)): > 20 µM

N=C(N)NC(=O)c1nc(Cl)c(N)nc1N [AMILORIDE]
IC50: > 50.1 µM | IC50 (read-out: pIC50 (converted)): > 50.1 µM

Nc1c2ccccc2nc2ccccc12 [AMINACRINE]
IC50: > 20 µM | IC50 (read-out: pIC50 (converted)): > 20 µM

Nc1ccc(C(=O)O)cc1 [AMINOBENZOIC ACID]
IC50: > 20 µM | IC50 (read-out: pIC50 (converted)): > 20 µM

NCCCCCC(=O)O [AMINOCAPROIC ACID]
IC50: > 20 µM | IC50 (read-out: pIC50 (converted)): > 20 µM

CCC1(c2ccc(N)cc2)CCC(=O)NC1=O (stereo not given) [AMINOGLUTETHIMIDE]
IC50: > 20 µM | IC50 (read-out: pIC50 (converted)): > 20 µM

Nc1ccc(C(=O)NCC(=O)O)cc1 [AMINOHIPPURIC ACID]
IC50: > 20 µM | IC50 (read-out: pIC50 (converted)): > 20 µM

NCC(=O)CCC(=O)O [AMINOLEVULINIC ACID]
IC50: > 20 µM | IC50 (read-out: pIC50 (converted)): > 20 µM

C=CCn1c(N)cc(=O)n(CC)c1=O [AMINOMETRADINE]
IC50: > 20 µM | IC50 (read-out: pIC50 (converted)): > 20 µM

CC(CC(C(N)=O)(c1ccccc1)c1ccccc1)N(C)C (stereo not given) [AMINOPENTAMIDE SULFATE]
IC50: > 20 µM | IC50 (read-out: pIC50 (converted)): > 20 µM

CN(C)CC(CN1c2ccccc2Sc2ccccc21)N(C)C (stereo not given) [AMINOPROMAZINE]
IC50: > 20 µM | IC50 (read-out: pIC50 (converted)): > 20 µM

Nc1nc(N)c2nc(CNc3ccc(C(=O)N[C@@H](CCC(=O)O)C(=O)O)cc3)cnc2n1 [AMINOPTERIN]
IC50: > 20 µM | IC50 (read-out: pIC50 (converted)): > 20 µM

Cc1c(N(C)C)c(=O)n(-c2ccccc2)n1C [AMINOPYRINE]
IC50: > 20 µM | IC50 (read-out: pIC50 (converted)): > 20 µM

NC1=NCC(c2ccccc2)O1 (stereo not given) [AMINOREX]
IC50: > 100 µM | IC50 (read-out: pIC50 (converted)): > 100 µM

Nc1ccc(C(=O)O)c(O)c1 [AMINOSALICYLIC ACID]
IC50: > 20 µM | IC50 (read-out: pIC50 (converted)): > 20 µM

Nc1nccs1 [AMINOTHIAZOLE]
IC50: > 20 µM | IC50 (read-out: pIC50 (converted)): > 20 µM

Nc1nc(N)c(-c2ccccc2)s1 [AMIPHENAZOLE]
IC50: > 20 µM | IC50 (read-out: pIC50 (converted)): > 20 µM

CN(C)CCCO[C@@H]1[C@H]2OC(C)(C)O[C@H]2O[C@@H]1[C@H](O)CO [AMIPRILOSE]
IC50: > 20 µM | IC50 (read-out: pIC50 (converted)): > 20 µM

C=C(C)Cn1c(N)cc(=O)n(C)c1=O [AMISOMETRADINE]
IC50: > 20 µM | IC50 (read-out: pIC50 (converted)): > 20 µM

CCN1CCCC1CNC(=O)c1cc(S(=O)(=O)CC)c(N)cc1OC (stereo not given) [AMISULPRIDE]
IC50: > 20 µM | IC50 (read-out: pIC50 (converted)): > 20 µM

CC(=O)Nc1ccc(/C=N/NC(N)=S)cc1 [AMITHIOZONE]
IC50: > 20 µM | IC50 (read-out: pIC50 (converted)): > 20 µM

CN(C)CCC=C1c2ccccc2CCc2ccccc21 [AMITRIPTYLINE]
IC50: > 20 µM | IC50 (read-out: pIC50 (converted)): > 20 µM

CCOC(=O)C1=C(COCCN)NC(C)=C(C(=O)OC)C1c1ccccc1Cl (stereo not given) [AMLODIPINE]
IC50: > 20 µM | IC50 (read-out: pIC50 (converted)): > 20 µM

CCC1(CCC(C)C)C(=O)NC(=O)NC1=O [AMOBARBITAL]
IC50: > 20 µM | IC50 (read-out: pIC50 (converted)): > 20 µM

CCN(CC)Cc1cc(Nc2ccnc3cc(Cl)ccc23)ccc1O [AMODIAQUINE]
IC50: > 20 µM | IC50 (read-out: pIC50 (converted)): > 20 µM

COc1cc(C(=O)OC(COCCC(C)C)CN2CCOCC2)cc(OC)c1OC (stereo not given) [AMOPROXAN]
IC50: > 20 µM | IC50 (read-out: pIC50 (converted)): > 20 µM

CCC(C)(C)c1ccc(CC(C)CN2C[C@@H](C)O[C@@H](C)C2)cc1 (stereo not given in full) [AMOROLFINE]
IC50: > 20 µM | IC50 (read-out: pIC50 (converted)): > 20 µM

Clc1ccc2c(c1)C(N1CCNCC1)=Nc1ccccc1O2 [AMOXAPINE]
IC50: > 20 µM | IC50 (read-out: pIC50 (converted)): > 20 µM

CC1(C)S[C@@H]2[C@H](NC(=O)[C@H](N)c3ccc(O)cc3)C(=O)N2[C@H]1C(=O)O [AMOXICILLIN]
IC50: > 20 µM | IC50 (read-out: pIC50 (converted)): > 20 µM

CCNC(=O)N1CCN(CCCC(c2ccc(F)cc2)c2ccc(F)cc2)CC1 [AMPEROZIDE]
IC50: > 20 µM | IC50 (read-out: pIC50 (converted)): > 20 µM

CC1(C)S[C@@H]2[C@H](NC(=O)[C@H](N)c3ccccc3)C(=O)N2[C@H]1C(=O)O [AMPICILLIN]
IC50: > 20 µM | IC50 (read-out: pIC50 (converted)): > 20 µM

CCOC(=O)OC(C)OC1=C(C(=O)Nc2ccccn2)N(C)S(=O)(=O)c2ccccc21 (stereo not given) [AMPIROXICAM]
IC50: > 20 µM | IC50 (read-out: pIC50 (converted)): > 20 µM

CCN(CC)CC(C)(C)COC(=O)C(CO)c1ccccc1 (stereo not given) [AMPROTROPINE]
IC50: > 20 µM | IC50 (read-out: pIC50 (converted)): > 20 µM

CCCc1cc2c(O)c(C(=O)OC)cnc2cc1N(CC)CC [AMQUINATE]
IC50: > 20 µM | IC50 (read-out: pIC50 (converted)): > 20 µM

CC(=O)[C@]1(N)Cc2c(O)c3c(c(O)c2[C@@H](O[C@H]2C[C@H](O)[C@H](O)CO2)C1)C(=O)c1ccccc1C3=O [AMRUBICIN]
IC50: > 20 µM | IC50 (read-out: pIC50 (converted)): > 20 µM

COc1cc(NS(C)(=O)=O)ccc1Nc1c2ccccc2nc2ccccc12 [AMSACRINE]
IC50: > 20 µM | IC50 (read-out: pIC50 (converted)): > 20 µM

S=C(NCc1ccc2c(c1)OCO2)N1CCN(c2ncnc3c2oc2ccccc23)CC1 [AMUVATINIB]
IC50: > 20 µM | IC50 (read-out: pIC50 (converted)): > 20 µM

CCC(C)(C)O [AMYLENE HYDRATE]
IC50: > 20 µM | IC50 (read-out: pIC50 (converted)): > 20 µM

CCCCCc1ccc(C)cc1O [AMYLMETACRESOL]
IC50: > 20 µM | IC50 (read-out: pIC50 (converted)): > 20 µM

CCC(C)(CN(C)C)OC(=O)c1ccccc1 (stereo not given) [AMYLOCAINE]
IC50: > 20 µM | IC50 (read-out: pIC50 (converted)): > 20 µM

CCCC(=O)OCOC(=O)C(C)(C)C [AN-9]
IC50: > 20 µM | IC50 (read-out: pIC50 (converted)): > 20 µM

c1cncc([C@@H]2CCCCN2)c1 [ANABASINE]
IC50: > 20 µM | IC50 (read-out: pIC50 (converted)): > 20 µM

COc1cc(F)c(C(C)C)cc1-c1ccc(C(F)(F)F)cc1CN1C(=O)O[C@H](c2cc(C(F)(F)F)cc(C(F)(F)F)c2)[C@@H]1C [ANACETRAPIB]
IC50: > 20 µM | IC50 (read-out: pIC50 (converted)): > 20 µM

O=C1CN2Cc3c(ccc(Cl)c3Cl)N=C2N1 [ANAGRELIDE]
IC50: > 20 µM | IC50 (read-out: pIC50 (converted)): > 20 µM

CCCCC/C=C\C/C=C\C/C=C\C/C=C\CCCC(=O)NCCO [ANANDAMIDE]
IC50: > 20 µM | IC50 (read-out: pIC50 (converted)): > 20 µM

N=c1ccn2c(n1)O[C@H]1[C@H](O)[C@@H](CO)O[C@H]12 [ANCITABINE]
IC50: > 20 µM | IC50 (read-out: pIC50 (converted)): > 20 µM

C[C@]12CCC(=O)C=C1CC[C@@H]1[C@@H]2CC[C@]2(C)C(=O)CC[C@@H]12 [ANDROSTENEDIONE]
IC50: > 20 µM | IC50 (read-out: pIC50 (converted)): > 20 µM

COc1ccc(-c2cc(=S)ss2)cc1 [ANETHOLTRITHION]
IC50: > 20 µM | IC50 (read-out: pIC50 (converted)): > 20 µM

CCOC(=O)C1(c2ccccc2)CCN(CCc2ccc(N)cc2)CC1 [ANILERIDINE]
IC50: > 20 µM | IC50 (read-out: pIC50 (converted)): > 20 µM

COc1ccc(C2C(=O)c3ccccc3C2=O)cc1 [ANISINDIONE]
IC50: > 20 µM | IC50 (read-out: pIC50 (converted)): > 20 µM

COc1ccc(C[C@H]2NC[C@H](O)[C@H]2OC(C)=O)cc1 [ANISOMYCIN]
IC50: > 20 µM | IC50 (read-out: pIC50 (converted)): > 20 µM

COc1ccccc1N1CCN(CCCC(O)c2ccc(F)cc2)CC1 (stereo not given) [ANISOPIROL]
IC50: > 20 µM | IC50 (read-out: pIC50 (converted)): > 20 µM

CCCC(CCC)C(=O)O[C@H]1C[C@H]2CC[C@@H](C1)[N+]2(C)C [ANISOTROPINE]
IC50: > 20 µM | IC50 (read-out: pIC50 (converted)): > 20 µM

COc1ccc(-c2nnc(C)nc2-c2ccc(OC)cc2)cc1 [ANITRAZAFEN]
IC50: > 20 µM | IC50 (read-out: pIC50 (converted)): > 20 µM

c1ccc(CN(CC2=NCCN2)c2ccccc2)cc1 [ANTAZOLINE]
IC50: > 20 µM | IC50 (read-out: pIC50 (converted)): > 20 µM

Cc1cc(=O)n(-c2ccccc2)n1C [ANTIPYRINE]
IC50: > 20 µM | IC50 (read-out: pIC50 (converted)): > 20 µM

COc1cc(OC)c2c(=O)[nH]c(-c3cc(C)c(OCCO)c(C)c3)nc2c1 [APABETALONE]
IC50: > 20 µM | IC50 (read-out: pIC50 (converted)): > 20 µM

CCNC(=O)[C@H]1O[C@@H](n2cnc3c(N)nc(C#CC[C@H]4CC[C@H](C(=O)OC)CC4)nc32)[C@H](O)[C@@H]1O [APADENOSON]
IC50: > 50.1 µM | IC50 (read-out: pIC50 (converted)): > 50.1 µM

CNC(=O)c1ccc(N2C(=S)N(c3cnc(C#N)c(C(F)(F)F)c3)C(=O)C23CCC3)cc1F [APALUTAMIDE]
IC50: > 20 µM | IC50 (read-out: pIC50 (converted)): > 20 µM

CCCC1C(=O)N2C(N(C)C)=Nc3ccc(C)cc3N2C1=O (stereo not given) [APAZONE]
IC50: > 20 µM | IC50 (read-out: pIC50 (converted)): > 20 µM

O=c1cc(-c2ccc(O)cc2)oc2cc(O)cc(O)c12 [APIGENIN]
IC50: > 20 µM | IC50 (read-out: pIC50 (converted)): > 20 µM

Cc1cccc(/C=N/Nc2cc(N3CCOCC3)nc(OCCc3ccccn3)n2)c1 [APILIMOD]
IC50: > 20 µM | IC50 (read-out: pIC50 (converted)): > 20 µM

C=CCc1cc(OC)c2c(c1OC)OCO2 [APIOL]
IC50: > 20 µM | IC50 (read-out: pIC50 (converted)): > 20 µM

Cc1c(CN2CCN(C(=O)[C@H](C)O)CC2)sc2c(N3CCOCC3)nc(-c3cnc(N)nc3)nc12 [APITOLISIB]
IC50: > 20 µM | IC50 (read-out: pIC50 (converted)): > 20 µM

COc1ccc(-n2nc(C(N)=O)c3c2C(=O)N(c2ccc(N4CCCCC4=O)cc2)CC3)cc1 [APIXABAN]
IC50: > 20 µM | IC50 (read-out: pIC50 (converted)): > 20 µM
